Reference: ChEMBL document CHEMBL4177767, “Discovery of N2-(4-Amino-cyclohexyl)-9-cyclopentyl- N6-(4-morpholin-4-ylmethyl-phenyl)- 9H-purine-2,6-diamine as a Potent FLT3 Kinase Inhibitor for Acute Myeloid Leukemia with FLT3 Mutations” (J Med Chem, 2018)
Calls of active or inactive are those of the source. No cut-off for these calls is given here.

Experiments:
[1] = biological target: Receptor-type tyrosine-protein kinase FLT3 (Homo sapiens) (UniProt P36888); experiment: Inhibition of human N-terminal GST-tagged FLT3 cytoplasmic domain expressed in baculovirus expression system at 10 nM
MV4-11 [2] = experiment: Induction of apoptosis in human MV4-11 cells assessed as increase in caspase-3/7 activity using Ac-DEVD-AMC substrate after 24 hrs by fluorescence assay; format: functional, cell-based
[3] = biological target: High affinity nerve growth factor receptor (Homo sapiens) (UniProt P04629); details: 10 nM
Sequence of High affinity nerve growth factor receptor (Homo sapiens) (P04629 33-796 limits assumed): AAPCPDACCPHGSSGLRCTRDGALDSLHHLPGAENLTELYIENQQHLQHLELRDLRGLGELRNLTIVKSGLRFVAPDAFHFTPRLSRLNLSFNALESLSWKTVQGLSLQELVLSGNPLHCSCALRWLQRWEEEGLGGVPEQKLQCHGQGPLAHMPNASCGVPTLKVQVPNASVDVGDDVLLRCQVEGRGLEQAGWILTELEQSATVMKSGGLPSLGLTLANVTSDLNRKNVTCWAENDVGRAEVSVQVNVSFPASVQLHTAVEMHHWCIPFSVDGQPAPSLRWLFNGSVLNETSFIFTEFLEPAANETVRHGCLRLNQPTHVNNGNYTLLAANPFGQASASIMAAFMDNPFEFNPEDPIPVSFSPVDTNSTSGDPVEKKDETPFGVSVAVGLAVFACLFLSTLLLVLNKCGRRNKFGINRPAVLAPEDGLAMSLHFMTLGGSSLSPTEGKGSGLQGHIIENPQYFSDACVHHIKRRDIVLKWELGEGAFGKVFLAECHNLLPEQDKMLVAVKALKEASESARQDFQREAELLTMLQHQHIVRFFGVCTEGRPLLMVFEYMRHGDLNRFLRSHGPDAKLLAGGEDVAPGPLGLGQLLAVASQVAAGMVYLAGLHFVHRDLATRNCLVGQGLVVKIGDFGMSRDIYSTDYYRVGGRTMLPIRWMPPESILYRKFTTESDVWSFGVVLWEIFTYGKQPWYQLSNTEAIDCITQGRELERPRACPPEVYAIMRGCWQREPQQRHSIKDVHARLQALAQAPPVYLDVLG
Description: Inhibition of human N-terminal GST-tagged TRK cytoplasmic domain expressed in baculovirus expression system at 10 nM relative to control

THP-1 = experiment: cells; details: Homo sapiens, THP-1, 72 h
MV4-11 [4] = experiment: Cell cycle arrest in human MV4-11 cells assessed as accumulation at G2/M phase at 1 nM after 24 hrs by propidium iodide staining-based flow cytometric method (reference value: 15.9%); format: functional
Rattus norvegicus = experiment: Toxicity in Wistar rat assessed as pathological macroscopic changes at 100 mg/kg, iv after 15 days; format: organism-based; details: in vivo, 360 h
[5] = biological target: Macrophage colony-stimulating factor 1 receptor (Homo sapiens) (UniProt P07333); details: 10 nM
Sequence of Macrophage colony-stimulating factor 1 receptor (Homo sapiens) (P07333 whole entry): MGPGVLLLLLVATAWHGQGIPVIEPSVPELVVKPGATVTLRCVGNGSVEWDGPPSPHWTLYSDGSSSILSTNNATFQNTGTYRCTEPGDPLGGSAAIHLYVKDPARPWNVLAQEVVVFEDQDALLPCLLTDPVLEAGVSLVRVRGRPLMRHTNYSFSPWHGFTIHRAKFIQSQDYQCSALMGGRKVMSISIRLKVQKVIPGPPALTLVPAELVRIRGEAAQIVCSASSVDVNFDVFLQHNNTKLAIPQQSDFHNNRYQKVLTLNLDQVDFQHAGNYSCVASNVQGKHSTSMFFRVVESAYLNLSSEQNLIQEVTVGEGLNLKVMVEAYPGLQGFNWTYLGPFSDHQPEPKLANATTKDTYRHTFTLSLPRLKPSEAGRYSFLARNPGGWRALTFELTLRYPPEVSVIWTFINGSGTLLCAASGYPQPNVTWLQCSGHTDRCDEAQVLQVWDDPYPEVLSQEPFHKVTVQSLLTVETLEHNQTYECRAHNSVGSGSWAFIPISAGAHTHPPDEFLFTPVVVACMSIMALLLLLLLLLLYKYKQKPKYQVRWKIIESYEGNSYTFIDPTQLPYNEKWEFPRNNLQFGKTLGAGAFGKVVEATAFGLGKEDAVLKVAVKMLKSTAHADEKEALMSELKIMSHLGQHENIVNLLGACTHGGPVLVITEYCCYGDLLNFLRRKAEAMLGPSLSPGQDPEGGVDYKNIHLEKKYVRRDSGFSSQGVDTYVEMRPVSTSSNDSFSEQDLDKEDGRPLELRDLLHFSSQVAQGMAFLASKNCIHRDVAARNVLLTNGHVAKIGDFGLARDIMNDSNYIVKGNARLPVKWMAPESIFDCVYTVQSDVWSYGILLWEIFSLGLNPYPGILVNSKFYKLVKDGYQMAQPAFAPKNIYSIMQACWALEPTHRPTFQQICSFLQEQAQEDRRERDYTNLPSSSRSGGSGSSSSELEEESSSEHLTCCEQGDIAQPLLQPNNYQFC
Description: Inhibition of human N-terminal GST-tagged FMS expressed in baculovirus expression system at 10 nM relative to control

MV4-11 [6] = experiment: Cell cycle arrest in human MV4-11 cells assessed as accumulation at G1 phase at 0.1 nM after 24 hrs by propidium iodide staining-based flow cytometric method (reference value: 56%); format: functional
MV4-11 [7] = experiment: Cell cycle arrest in human MV4-11 cells assessed as accumulation at G1 phase at 1 nM after 24 hrs by propidium iodide staining-based flow cytometric method (reference value: 56%); format: functional
MV4-11 [8] = experiment: Cell cycle arrest in human MV4-11 cells assessed as accumulation at G2/M phase at 100 nM after 24 hrs by propidium iodide staining-based flow cytometric method (reference value: 15.9%); format: functional
[9] = biological target: Calcium/calmodulin-dependent protein kinase type II subunit delta (Homo sapiens) (UniProt Q13557); details: 10 nM
Sequence of Calcium/calmodulin-dependent protein kinase type II subunit delta (Homo sapiens) (Q13557 whole entry): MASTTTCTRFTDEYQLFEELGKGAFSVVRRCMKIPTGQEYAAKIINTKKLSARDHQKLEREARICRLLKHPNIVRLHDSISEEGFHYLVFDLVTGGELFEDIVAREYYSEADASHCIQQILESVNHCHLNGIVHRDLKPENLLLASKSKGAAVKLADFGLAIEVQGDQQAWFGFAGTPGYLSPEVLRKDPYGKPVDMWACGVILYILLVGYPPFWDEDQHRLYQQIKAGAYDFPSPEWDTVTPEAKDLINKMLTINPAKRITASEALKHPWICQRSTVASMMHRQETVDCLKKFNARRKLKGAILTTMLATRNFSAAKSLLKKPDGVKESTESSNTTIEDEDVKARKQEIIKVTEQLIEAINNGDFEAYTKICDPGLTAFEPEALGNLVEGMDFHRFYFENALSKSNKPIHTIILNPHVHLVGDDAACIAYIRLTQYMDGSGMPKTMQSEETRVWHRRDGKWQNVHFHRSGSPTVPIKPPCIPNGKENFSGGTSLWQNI
Description: Inhibition of full length human N-terminal GST-tagged CaMK2delta expressed in baculovirus expression system at 10 nM relative to control

in vitro [10] = details: human, BJ cells
[11] = biological target: Receptor-type tyrosine-protein kinase FLT3 (Homo sapiens, UniProt P36888, ITD); experiment: biochemical; format: cell-based, Sf9
Description: Inhibition of N-terminal GST/His6-fused recombinant human FLT3 (R571 to S993 residues) ITD mutant expressed in Sf9 insect cells using poly (Ala,Glu,Lys,Tyr) 6:2:5:1 hydrobromide as substrate in presence of [gamma-33P]ATP

[12] = tested on: Receptor-type tyrosine-protein kinase FLT3 (Homo sapiens), P36888 [UNDEFINED MUTATION]; details: MV4-11, at 0.01 to 100 nM
Description: Inhibition of FLT3 ITD mutant in human MV4-11 cells assessed as decrease in ERK1/2 phosphorylation at T202/Y204 at 0.01 to 100 nM after 1 hr by immunoblot analysis

[13] = tested on: Mast/stem cell growth factor receptor Kit (Homo sapiens), P10721 [D816V]; details: 10 nM
Sequence of Mast/stem cell growth factor receptor Kit (Homo sapiens), P10721 [D816V] (P10721 whole entry D816V): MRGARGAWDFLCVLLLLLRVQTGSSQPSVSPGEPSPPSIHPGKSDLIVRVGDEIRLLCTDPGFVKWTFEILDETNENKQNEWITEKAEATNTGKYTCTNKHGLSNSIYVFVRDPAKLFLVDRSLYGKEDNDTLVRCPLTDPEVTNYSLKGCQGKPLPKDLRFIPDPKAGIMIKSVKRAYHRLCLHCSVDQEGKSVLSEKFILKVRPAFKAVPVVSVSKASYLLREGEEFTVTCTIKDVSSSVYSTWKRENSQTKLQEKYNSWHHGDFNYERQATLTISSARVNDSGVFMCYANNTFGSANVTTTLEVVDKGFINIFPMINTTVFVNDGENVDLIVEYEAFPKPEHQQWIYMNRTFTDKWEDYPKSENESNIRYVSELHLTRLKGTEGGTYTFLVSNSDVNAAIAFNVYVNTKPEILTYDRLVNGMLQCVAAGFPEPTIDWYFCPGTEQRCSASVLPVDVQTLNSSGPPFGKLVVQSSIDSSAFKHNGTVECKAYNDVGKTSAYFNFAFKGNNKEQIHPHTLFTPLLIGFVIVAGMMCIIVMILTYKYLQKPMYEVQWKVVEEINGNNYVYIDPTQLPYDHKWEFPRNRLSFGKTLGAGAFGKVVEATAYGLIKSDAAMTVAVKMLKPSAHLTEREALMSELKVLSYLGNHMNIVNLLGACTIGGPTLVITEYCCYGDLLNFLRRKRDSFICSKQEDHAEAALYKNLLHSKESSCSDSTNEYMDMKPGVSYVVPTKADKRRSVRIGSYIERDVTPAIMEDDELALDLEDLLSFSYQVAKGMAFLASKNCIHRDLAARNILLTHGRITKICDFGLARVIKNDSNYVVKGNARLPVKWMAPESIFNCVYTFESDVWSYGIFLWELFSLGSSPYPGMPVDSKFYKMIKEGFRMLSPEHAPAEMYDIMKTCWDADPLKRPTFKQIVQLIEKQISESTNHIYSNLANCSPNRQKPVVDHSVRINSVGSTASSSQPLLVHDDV
Description: Inhibition of human N-terminal GST-tagged KIT D816V mutant cytoplasmic domain expressed in baculovirus expression system at 10 nM relative to control

MV4-11 [14] = experiment: Cell cycle arrest in human MV4-11 cells assessed as accumulation at sub-G1 phase at 1 nM after 24 hrs by propidium iodide staining-based flow cytometric method (reference value: 9.2%); format: functional
K562 = experiment: Induction of apoptosis in human K562 cells assessed as increase in caspase-3/7 activity using Ac-DEVD-AMC substrate after 24 hrs by fluorescence assay; format: functional, cell-based
MV4-11 [15] = experiment: Cell cycle arrest in human MV4-11 cells assessed as accumulation at sub-G1 phase at 10 nM after 24 hrs by propidium iodide staining-based flow cytometric method (reference value: 9.2%); format: functional
[16] = biological target: T1, Receptor-type tyrosine-protein kinase FLT3 (Homo sapiens, UniProt P36888); experiment: biochemical; format: cell-based, Sf9
T1 sequence (P36888 whole entry): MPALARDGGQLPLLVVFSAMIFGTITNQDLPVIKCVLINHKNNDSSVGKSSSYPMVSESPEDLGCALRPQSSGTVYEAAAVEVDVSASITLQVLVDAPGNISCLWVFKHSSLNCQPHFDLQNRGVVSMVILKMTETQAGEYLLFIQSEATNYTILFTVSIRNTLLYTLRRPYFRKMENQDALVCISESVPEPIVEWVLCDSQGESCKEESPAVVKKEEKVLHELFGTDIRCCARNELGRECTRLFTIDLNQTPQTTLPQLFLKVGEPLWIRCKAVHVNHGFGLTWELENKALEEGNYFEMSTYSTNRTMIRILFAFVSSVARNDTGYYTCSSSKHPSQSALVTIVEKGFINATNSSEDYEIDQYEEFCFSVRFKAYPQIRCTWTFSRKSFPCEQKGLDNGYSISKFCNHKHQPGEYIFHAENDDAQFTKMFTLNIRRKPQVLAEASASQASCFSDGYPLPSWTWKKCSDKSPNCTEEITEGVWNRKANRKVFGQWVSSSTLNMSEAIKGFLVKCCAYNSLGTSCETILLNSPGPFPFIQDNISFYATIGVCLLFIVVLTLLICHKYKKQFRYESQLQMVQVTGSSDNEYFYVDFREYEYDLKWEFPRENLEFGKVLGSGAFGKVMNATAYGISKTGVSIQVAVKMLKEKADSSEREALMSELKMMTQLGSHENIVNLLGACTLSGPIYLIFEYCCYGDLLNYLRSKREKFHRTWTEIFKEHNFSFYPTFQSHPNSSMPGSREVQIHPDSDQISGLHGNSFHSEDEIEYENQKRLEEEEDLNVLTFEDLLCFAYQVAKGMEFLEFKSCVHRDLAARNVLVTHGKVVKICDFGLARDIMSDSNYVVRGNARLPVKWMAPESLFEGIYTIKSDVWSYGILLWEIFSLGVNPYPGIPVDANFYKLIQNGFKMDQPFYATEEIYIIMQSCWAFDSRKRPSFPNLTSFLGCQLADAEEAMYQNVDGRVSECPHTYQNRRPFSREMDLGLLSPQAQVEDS
Description: Inhibition of N-terminal GST/His6-fused recombinant wild type human FLT3 (R571 to S993 residues) expressed in Sf9 insect cells using poly (Ala,Glu,Lys,Tyr) 6:2:5:1 hydrobromide as substrate in presence of [gamma-33P]ATP

MV4-11 [17] = experiment: Cell cycle arrest in human MV4-11 cells assessed as accumulation at S phase at 1 nM after 24 hrs by propidium iodide staining-based flow cytometric method (reference value: 28.1%); format: functional
[18] = tested on: Receptor-type tyrosine-protein kinase FLT3 (Homo sapiens), P36888 [UNDEFINED MUTATION]; details: MV4-11, at 0.01 to 100 nM; remark: listed apart in the source
Description: Inhibition of FLT3 ITD mutant in human MV4-11 cells assessed as decrease in MEK1/2 phosphorylation at S217/221 at 0.01 to 100 nM after 1 hr by immunoblot analysis

in vitro [19] = details: mouse, BA/F3 cells
[20] = biological target: MAP kinase-interacting serine/threonine-protein kinase 2 (Homo sapiens) (UniProt Q9HBH9); details: 10 nM
Sequence of MAP kinase-interacting serine/threonine-protein kinase 2 (Homo sapiens) (Q9HBH9 whole entry, looked up): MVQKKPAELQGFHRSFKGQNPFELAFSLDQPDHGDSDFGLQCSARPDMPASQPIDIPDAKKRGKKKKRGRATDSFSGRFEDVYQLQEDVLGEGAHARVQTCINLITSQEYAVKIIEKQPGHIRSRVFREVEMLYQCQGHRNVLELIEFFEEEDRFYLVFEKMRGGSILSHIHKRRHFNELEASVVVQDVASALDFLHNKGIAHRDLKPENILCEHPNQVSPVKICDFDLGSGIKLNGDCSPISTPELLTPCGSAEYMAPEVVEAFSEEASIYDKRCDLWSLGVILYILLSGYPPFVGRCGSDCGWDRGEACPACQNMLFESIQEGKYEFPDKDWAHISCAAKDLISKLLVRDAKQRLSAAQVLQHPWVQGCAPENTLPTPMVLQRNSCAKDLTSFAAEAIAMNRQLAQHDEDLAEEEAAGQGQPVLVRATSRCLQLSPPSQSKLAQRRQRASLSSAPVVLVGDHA
Description: Inhibition of full length human N-terminal GST-tagged MNK2 expressed in baculovirus expression system at 10 nM relative to control

HCC827 = experiment: cells; details: Homo sapiens, HCC827, 72 h
Kasumi 1 = experiment: cells; details: Homo sapiens, Kasumi 1, 72 h
MV4-11 [21] = experiment: Cell cycle arrest in human MV4-11 cells assessed as accumulation at S phase at 0.01 nM after 24 hrs by propidium iodide staining-based flow cytometric method (reference value: 28.1%); format: functional

N[C@H]1CC[C@H](Nc2nc(Nc3ccc(CN4CCOCC4)cc3)c3ncn(C4CCCC4)c3n2)CC1
inhibition [1]: Active
Activity (MV4-11 [2]): Active
inhibition [3]: > 90%
GI50 (THP-1): 713 nM
Activity (MV4-11 [4]): 1.1%
Activity (Rattus norvegicus): Non-Toxic
inhibition [5]: > 90%
Activity (MV4-11 [6]): 59.7%
Activity (MV4-11 [7]): 90.3%
Activity (MV4-11 [8]): 1.2%
inhibition [9]: > 90%
GI50 at 72 h (in vitro [10]): 12700 nM
IC50 [11]: 3 nM
inhibition [12]: Active
inhibition [13]: > 90%
Activity (MV4-11 [14]): 20.4%
Activity (K562): inactive
Activity (MV4-11 [15]): 42.9%
IC50 [16]: 13 nM
Activity (MV4-11 [17]): 8.6%
inhibition [18]: Active
GI50 at 72 h (in vitro [19]): 1140 nM
inhibition [20]: > 90%
GI50 (HCC827): 327 nM
GI50 (Kasumi 1): 513 nM
Activity (MV4-11 [21]): 29.9%
